Series [1] is described as follows: Half-life was measured at the concentration of 2.0 mg/kg in rabbit blood sample. The class given is ADME, organism-based, Oryctolagus cuniculus. More on the design: dose 2 mg/kg.
The nature of series [2]: Clearance was measured at the concentration of 2.0 mg/kg in rabbit blood sample. The class given is ADME, organism-based, Oryctolagus cuniculus. More on the design: dose 2 mg/kg.
For a further series, the target named is Albumin (Homo sapiens, UniProt P02768). Put plainly: Compound was measured for its retention time in human serum albumin;where k`=tt-t0/t0; tt=retention time of compound and t0=retention time of DMSO.
Series [3] deals with T1, Coagulation factor VII (Homo sapiens, UniProt P08709).
T1 sequence (P08709 whole entry): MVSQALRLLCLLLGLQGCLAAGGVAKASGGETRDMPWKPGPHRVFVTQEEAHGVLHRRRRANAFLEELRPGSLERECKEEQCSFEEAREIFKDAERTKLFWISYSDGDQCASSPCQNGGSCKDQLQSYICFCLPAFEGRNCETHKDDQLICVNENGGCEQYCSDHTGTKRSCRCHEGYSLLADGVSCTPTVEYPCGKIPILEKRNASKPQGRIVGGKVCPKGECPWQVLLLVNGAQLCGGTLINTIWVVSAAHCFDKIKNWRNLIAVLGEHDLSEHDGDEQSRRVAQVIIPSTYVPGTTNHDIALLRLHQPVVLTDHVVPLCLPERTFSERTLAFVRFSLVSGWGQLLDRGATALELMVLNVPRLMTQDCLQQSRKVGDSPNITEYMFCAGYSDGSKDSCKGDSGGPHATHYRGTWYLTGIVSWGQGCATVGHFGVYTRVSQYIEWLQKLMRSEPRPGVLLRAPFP
Put plainly: Inhibitory activity for the compound against coagulation factor VIIa in presence of 0.1% rabbit serum albumin.

Series [4] concerns the target T1, Coagulation factor VII. The series is described as follows: Inhibitory activity for the compound against coagulation factor VIIa in presence of 0.1% human serum albumin.
Series [5] concerns the target T1, Coagulation factor VII. The series is described as follows: Inhibitory activity for the compound against coagulation factor VIIa in presence of 1% ovalbumin.
The nature of series [6]: Half-life was measured at the concentration of 1.11 mg/kg in rabbit blood sample. The class given is ADME, organism-based, Oryctolagus cuniculus. Further details: dose 1.11 mg/kg.
Series [7] can be described thus: Clearance was measured at the concentration of 1.11 mg/kg in rabbit blood sample. It is filed as ADME, organism-based, Oryctolagus cuniculus. More on the design: dose 1.11 mg/kg.

Where a SMILES comes first, the peptide text is derived from it. Bridges are numbered along the chain shown (N, C = ends). The star is where a group is joined. X3 = O=C(CCCCCOP(=O)(O)OC1CCC(c2ccccc2)(c2ccccc2)CC1)*; X4 = O=C(CCC(=O)*)NS(=O)(=O)c1ccc2ccccc2c1; X2 = O=C(CCCCCOP(=O)(O)Oc1ccc2ccccc2c1)*; X1 = O=C(CCCCCOP(=O)(O)OCCCCCc1ccccc1)*

As usually defined, the half-life is the time needed for the level to fall by half in the phase considered. The clearance is the volume of plasma or blood freed of the substance per unit of time. Broadly, the IC50 is the concentration that gives 50% inhibition.

Chain of Albumin (P02768 whole entry): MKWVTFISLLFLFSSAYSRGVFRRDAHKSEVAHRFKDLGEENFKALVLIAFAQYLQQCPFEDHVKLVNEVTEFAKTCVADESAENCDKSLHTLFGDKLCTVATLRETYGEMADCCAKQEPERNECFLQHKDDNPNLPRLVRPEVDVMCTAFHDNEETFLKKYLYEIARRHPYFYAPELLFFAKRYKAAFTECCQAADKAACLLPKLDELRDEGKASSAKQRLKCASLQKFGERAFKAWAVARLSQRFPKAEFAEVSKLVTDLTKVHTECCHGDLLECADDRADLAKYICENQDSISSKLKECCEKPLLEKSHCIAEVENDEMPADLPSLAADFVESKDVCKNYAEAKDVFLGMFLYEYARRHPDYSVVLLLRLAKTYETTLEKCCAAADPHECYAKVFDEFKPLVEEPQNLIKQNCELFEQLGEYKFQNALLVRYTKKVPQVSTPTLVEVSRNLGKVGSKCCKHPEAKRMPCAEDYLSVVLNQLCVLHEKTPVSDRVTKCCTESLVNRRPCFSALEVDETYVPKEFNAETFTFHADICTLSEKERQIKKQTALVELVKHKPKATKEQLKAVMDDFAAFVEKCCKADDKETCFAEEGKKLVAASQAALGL

`CC[C@H](C)[C@@H]1NC(=O)[C@H](CCCN=C(N)N)NC(=O)[C@@H]2CCCN2C(=O)[C@H](CC(N)=O)NC(=O)[C@H](CC(=O)O)NC(=O)[C@@H](NC(=O)[C@H](CC(C)C)NC(=O)[C@H](C)NC(=O)CCCCCOP(=O)(O)OCCCCCc2ccccc2)CSSC[C@@H](C(=O)N[C@@H](CCC(N)=O)C(=O)N[C@@H](Cc2ccccc2)C(=O)N[C@H](C(=O)N[C@@H](CCC(=O)O)C(=O)NCC(N)=O)C(C)C)NC(=O)[C@H](Cc2ccc(O)cc2)NC(=O)[C@H](Cc2c[nH]c3ccccc23)NC(=O)[C@H](CCCN=C(N)N)NC(=O)[C@H](CC(=O)O)NC1=O` (X1-ALCDNPRIDRWYCQFVEG-NH2; disulfide 3-13) came in with a half-life in series [1] of 79.1 min. The compound further yielded a clearance in series [2] of 0.505 mL/min/kg. Moreover, the “k'/k'+1” value on Albumin amounted to 0.92. Further, the 50% inhibitory concentration (IC50) on Coagulation factor VII [3] came to 22 nM; on Coagulation factor VII [4] it was 2.4 nM; on Coagulation factor VII [5], 2 nM.

Regarding `CC[C@H](C)[C@@H]1NC(=O)[C@H](CCCN=C(N)N)NC(=O)[C@@H]2CCCN2C(=O)[C@H](CC(N)=O)NC(=O)[C@H](CC(=O)O)NC(=O)[C@@H](NC(=O)[C@H](CC(C)C)NC(=O)[C@H](C)NC(=O)CCCCCOP(=O)(O)OC2CCC(c3ccccc3)(c3ccccc3)CC2)CSSC[C@@H](C(=O)N[C@@H](CCC(N)=O)C(=O)N[C@@H](Cc2ccccc2)C(=O)N[C@H](C(=O)N[C@@H](CCC(=O)O)C(=O)NCC(N)=O)C(C)C)NC(=O)[C@H](Cc2ccc(O)cc2)NC(=O)[C@H](Cc2c[nH]c3ccccc23)NC(=O)[C@H](CCCN=C(N)N)NC(=O)[C@H](CC(=O)O)NC1=O` (X3-ALCDNPRIDRWYCQFVEG-NH2; disulfide 3-13), the half-life in series [1] stood at 222 min. The compound also gave a clearance in series [2] of 0.185 mL/min/kg. The “k'/k'+1” value at Albumin stood at 0.78. In addition, the results for the concentration for half-maximal inhibition (IC50) on Coagulation factor VII [3], at Coagulation factor VII [4] and at Coagulation factor VII [5] were 90 nM, 3.4 nM and 4 nM, respectively.

Consider `CC[C@H](C)[C@@H]1NC(=O)[C@H](CCCN=C(N)N)NC(=O)[C@@H]2CCCN2C(=O)[C@H](CC(N)=O)NC(=O)[C@H](CC(=O)O)NC(=O)[C@@H](NC(=O)[C@H](CC(C)C)NC(=O)[C@H](C)NC(=O)CCCCCOP(=O)(O)Oc2ccc3ccccc3c2)CSSC[C@@H](C(=O)N[C@@H](CCC(N)=O)C(=O)N[C@@H](Cc2ccccc2)C(=O)N[C@H](C(=O)N[C@@H](CCC(=O)O)C(=O)NCC(N)=O)C(C)C)NC(=O)[C@H](Cc2ccc(O)cc2)NC(=O)[C@H](Cc2c[nH]c3ccccc23)NC(=O)[C@H](CCCN=C(N)N)NC(=O)[C@H](CC(=O)O)NC1=O` (X2-ALCDNPRIDRWYCQFVEG-NH2; disulfide 3-13), for which the half-life in series [1] turned out to be 34.8 min. For the same compound, in series [2], the clearance was determined as 0.707 mL/min/kg. Also, the “k'/k'+1” value on Albumin turned out to be 0.92. Moreover, the half-inhibitory concentration (IC50) on Coagulation factor VII [3] came out at 9.2 nM; on Coagulation factor VII [4], 2 nM; on Coagulation factor VII [5], 1.9 nM.

Regarding `CC[C@H](C)[C@@H]1NC(=O)[C@H](CCCN=C(N)N)NC(=O)[C@@H]2CCCN2C(=O)[C@H](CC(N)=O)NC(=O)[C@H](CC(=O)O)NC(=O)[C@@H](NC(=O)[C@H](CC(C)C)NC(=O)[C@H](C)NC(C)=O)CSSC[C@@H](C(=O)N[C@@H](CCC(N)=O)C(=O)N[C@@H](Cc2ccccc2)C(=O)N[C@H](C(=O)N[C@@H](CCC(=O)O)C(=O)NCC(N)=O)C(C)C)NC(=O)[C@H](Cc2ccc(O)cc2)NC(=O)[C@H](Cc2c[nH]c3ccccc23)NC(=O)[C@H](CCCN=C(N)N)NC(=O)[C@H](CC(=O)O)NC1=O` (Ac-ALCDNPRIDRWYCQFVEG-NH2; disulfide 3-13), the “k'/k'+1” value at Albumin is given as 0.21. Moreover, the half-life in series [6] was 4.18 min. The half-maximal inhibitory concentration (IC50) on Coagulation factor VII [3] worked out at 9.7 nM; on Coagulation factor VII [4] it was 11 nM; on Coagulation factor VII [5], 9.2 nM. In series [7], this compound returned a clearance of 26.8 mL/min/kg.

`CC[C@H](C)[C@@H]1NC(=O)[C@H](CCCN=C(N)N)NC(=O)[C@@H]2CCCN2C(=O)[C@H](CC(N)=O)NC(=O)[C@H](CC(=O)O)NC(=O)[C@@H](NC(=O)[C@H](CC(C)C)NC(=O)[C@H](C)NC(=O)CCC(=O)NS(=O)(=O)c2ccc3ccccc3c2)CSSC[C@@H](C(=O)N[C@@H](CCC(N)=O)C(=O)N[C@@H](Cc2ccccc2)C(=O)N[C@H](C(=O)N[C@@H](CCC(=O)O)C(=O)NCC(N)=O)C(C)C)NC(=O)[C@H](Cc2ccc(O)cc2)NC(=O)[C@H](Cc2c[nH]c3ccccc23)NC(=O)[C@H](CCCN=C(N)N)NC(=O)[C@H](CC(=O)O)NC1=O` (X4-ALCDNPRIDRWYCQFVEG-NH2; disulfide 3-13): the half-life in series [1] amounted to 30 min. This compound registered a clearance in series [2] of 1.64 mL/min/kg. The “k'/k'+1” value on Albumin was 0.97. Further, the IC50 at Coagulation factor VII [3] stood at 24 nM; on Coagulation factor VII [4], 2.5 nM; on Coagulation factor VII [5], 3.6 nM.

Values taken from ChEMBL document CHEMBL1136423, “Phosphate ester serum albumin affinity tags greatly improve peptide half-life in vivo” (Bioorg Med Chem Lett, 2003).
